Assay results as given in patent publication US20210267203A1, “PESTICIDALLY ACTIVE AZOLE-AMIDE COMPOUNDS” (SYNGENTA PARTICIPATIONS AG, priority 2018, published 2021).

Key:
Assay type in all cases: in vivo
[1] = tested on: Euschistus heros (Neotropical Brown Stink Bug); experiment: Example B2: Euschistus heros (neotropical brown stink bug), soybean leaves sprayed, N2 nymphs; conditions: 120 h, application rate 200 ppm, 5 days after infestation, read-out: effect in at least one of the two categories (mortality or growth inhibition)
Description: Example B2: Euschistus heros (Neotropical Brown Stink Bug)
Soybean leaves on agar in 24-well microtiter plates were sprayed with aqueous test solutions prepared from 10,000 ppm DMSO stock solutions. After drying the leaves were infested with N2 nymphs. The samples were assessed for mortality and growth inhibition in comparison to untreated samples 5 days after infestation.
The following compounds gave an effect of at least 80% in at least one of the two categories (mortality or growth inhibition) at an application rate of 200 ppm: […]

[2] = tested on: Myzus persicae (Green Peach Aphid); experiment: Example B13: activity against Myzus persicae (green peach aphid), 96-well sucrose solution; conditions: 120 h, application rate 50 ppm, 5 days after infestation
Method in brief: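 Compounds, from 10,000 ppm DMSO stocks, mixed into sucrose solution in wells under stretched Parafilm, with aphids placed on the membrane in an inverted feeding setup. Mortality scored 5 days after infestation.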

[3] = tested on: Spodoptera littoralis (Egyptian Cotton Leaf Worm); experiment: Example B10: Spodoptera littoralis (Egyptian cotton leaf worm), uptake by lettuce roots from agar, eggs; conditions: 144 h, test rate 12.5 ppm, lettuce root uptake, 6 days after infestation, read-out: effect in at least one of the three categories (mortality, anti-feeding, or growth inhibition)
Text: Example B10: Spodoptera littoralis (Egyptian Cotton Leaf Worm)
Test compounds were applied by pipette from 10,000 ppm DMSO stock solutions into 24-well plates and mixed with agar. Lettuce seeds were placed onto the agar and the multi well plate was closed by another plate which contained also agar. After 7 days the compound was absorbed by the roots and the lettuce grew into the lid plate. The lettuce leaves were then cut off into the lid plate. Spodoptera eggs were pipetted through a plastic stencil onto a humid gel blotting paper and the lid plate was closed with it. The samples were assessed for mortality, anti-feedant effect and growth inhibition in comparison to untreated samples 6 days after infestation.
The following compounds gave an effect of at least 80% in at least one of the three categories (mortality, anti-feeding, or growth inhibition) at a test rate of 12.5 ppm: […]

[4] = tested on: Myzus persicae (Green Peach Aphid); experiment: Example B8: Myzus persicae (green peach aphid), intrinsic activity; conditions: 120 h, test rate 12 ppm, sucrose solution, 24-well, 5 days after infestation
Text: Example B8: Myzus persicae (Green Peach Aphid), Intrinsic Activity
Test compounds prepared from 10,000 ppm DMSO stock solutions were applied by pipette into 24-well microtiter plates and mixed with sucrose solution. The plates were closed with a stretched Parafilm. A plastic stencil with 24 holes was placed onto the plate and infested pea seedlings were placed directly on the Parafilm. The infested plate was closed with a gel blotting paper and another plastic stencil and then turned upside down. The samples were assessed for mortality 5 days after infestation.

[5] = tested on: Diabrotica Balteata (Corn Root Worm); experiment: Example B1: Diabrotica balteata (corn root worm), maize sprouts sprayed, L2 larvae; conditions: 96 h, application rate 200 ppm, 4 days after infestation, read-out: effect in at least one of the two categories (mortality or growth inhibition)
Method in brief: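 Maize sprouts on agar sprayed with aqueous dilutions of 10,000 ppm DMSO stocks, dried, then infested with 6–10 L2 larvae per well. Mortality and growth inhibition scored against untreated samples 4 days after infestation; rates of 200 ppm.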

[6] = tested on: Spodoptera littoralis (Egyptian Cotton Leaf Worm); experiment: Example B9: Spodoptera littoralis (Egyptian cotton leaf worm), cotton leaf discs sprayed, L1 larvae; conditions: foliar, 72 h, application rate 200 ppm, 3 days after infestation
Method in brief: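 Leaf discs on agar sprayed with aqueous dilutions from 10,000 ppm DMSO stock, dried, then infested with five L1 larvae. Mortality, anti-feeding and growth inhibition scored against untreated samples 3 days after infestation; control counted when any category exceeds untreated.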

[7] = tested on: Plutella xylostella (Diamondback Moth); experiment: Example B14: activity against Plutella xylostella (diamondback moth), 96-well artificial diet; conditions: 216 h, application rate 500 ppm, 9 days after infestation
Method in brief: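 Diet in 96-well plates was treated with aqueous dilutions of 10,000 ppm DMSO stocks, dried, and infested with 30 eggs per well via a netted lid; hatching L1 larvae fed on the diet. Mortality scored 9 days after infestation.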

[8] = tested on: Plutella xylostella (Diamond Back Moth); experiment: Example B5: Plutella xylostella (diamond back moth), artificial diet, 24-well, eggs; conditions: 192 h, application rate 200 ppm, 8 days after infestation, read-out: effect in at least one of the two categories (mortality or growth inhibition)
Method in brief: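 Artificial diet in 24-well plates treated with aqueous dilutions of 10,000 ppm DMSO stocks, dried, then infested with Plutella eggs. Mortality and growth inhibition scored against untreated samples 8 days after infestation; activity rated at 200 ppm application rate.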

[9] = tested on: Chilo suppressalis (Striped Rice Stemborer); experiment: Example B4: Chilo suppressalis (striped rice stemborer), artificial diet, L2 larvae; conditions: 144 h, application rate 200 ppm, 6 days after infestation
Description: Example B4: Chilo suppressalis (Striped Rice Stemborer)
24-well microtiter plates with artificial diet were treated with aqueous test solutions prepared from 10,000 ppm DMSO stock solutions by pipetting. After drying, the plates were infested with L2 larvae (6-8 per well). The samples were assessed for mortality, anti-feeding effect, and growth inhibition in comparison to untreated samples 6 days after infestation. Control of Chilo suppressalis by a test sample is given when at least one of the categories (i.e. mortality, anti-feedant effect, and growth inhibition) is higher than the untreated sample.

[10] = tested on: Thrips tabaci (Onion Thrips); experiment: Example B12: Thrips tabaci (onion thrips), feeding/contact activity; conditions: 144 h, application rate 200 ppm, mixed ages, 6 days after infestation
Description: Example B12: Thrips tabaci (Onion Thrips) Feeding/Contact Activity
Sunflower leaf discs were placed on agar in 24-well microtiter plates and sprayed with aqueous test solutions prepared from 10,000 ppm DMSO stock solutions. After drying the leaf discs were infested with a thrips population of mixed ages. The samples were assessed for mortality 6 days after infestation.

[11] = tested on: Myzus persicae (Green Peach Aphid); experiment: Example B6: Myzus persicae (green peach aphid), feeding/contact activity; conditions: 144 h, application rate 200 ppm, 6 days after infestation
Description: Example B6: Myzus persicae (Green Peach Aphid):Feeding/Contact Activity
Sunflower leaf discs were placed onto agar in a 24-well microtiter plate and sprayed with aqueous test solutions prepared from 10,000 ppm DMSO stock solutions. After drying, the leaf discs were infested with an aphid population of mixed ages. The samples were assessed for mortality 6 days after infestation.

CC(NC(=O)c1cc(C2CC2)nc(C(F)(F)F)c1)c1ncnn1-c1ncccn1 (stereo not shown) [P54, 2-cyclopropyl-N-[1-(2-pyrimidin-2-yl-1,2,4-triazol-3-yl)ethyl]-6-(trifluoromethyl)pyridine-4-carboxamide]
≥ 80%: percent effect (mortality or growth inhibition) at 200 ppm [1] | mortality at 50 ppm [2] | percent effect (mortality, anti-feeding or growth inhibition) at 12.5 ppm [3] | mortality at 12 ppm [4] | percent effect (mortality or growth inhibition) at 200 ppm [5] | percent control (mortality, anti-feedant effect or growth inhibition) at 200 ppm [6] | mortality at 500 ppm [7] | percent effect (mortality or growth inhibition) at 200 ppm [8]

CC(NC(=O)c1cc(C(F)(F)F)cc(C(F)(F)C2CC2)c1)c1ncnn1-c1ncccn1 (stereo not shown) [P59, 3-[cyclopropyl(difluoro)methyl]-N-[1-(2-pyrimidin-2-yl-1,2,4-triazol-3-yl)ethyl]-5-(trifluoromethyl)benzamide]
≥ 80%: percent effect (mortality or growth inhibition) at 200 ppm [1] | mortality at 50 ppm [2] | percent effect (mortality, anti-feeding or growth inhibition) at 12.5 ppm [3] | mortality at 12 ppm [4] | percent effect (mortality or growth inhibition) at 200 ppm [5] | percent control (mortality, anti-feedant effect or growth inhibition) at 200 ppm [6] | mortality at 500 ppm [7] | percent effect (mortality or growth inhibition) at 200 ppm [8] | percent control (mortality, anti-feedant effect or growth inhibition) at 200 ppm [9]

CC(c1ncnn1-c1ncccn1)N(CC1CC1)C(=O)c1cc(C(F)(F)F)cc(S(=O)(=O)C(F)F)c1 (stereo not shown) [P30, N-(cyclopropylmethyl)-3-(difluoromethylsulfonyl)-N-[1-(2-pyrimidin-2-yl-1,2,4-triazol-3-yl)ethyl]-5-(trifluoromethyl)benzamide]
≥ 80%: percent effect (mortality or growth inhibition) at 200 ppm [1] | mortality at 50 ppm [2] | mortality at 12 ppm [4] | percent effect (mortality or growth inhibition) at 200 ppm [5] | mortality at 500 ppm [7] | percent effect (mortality or growth inhibition) at 200 ppm [8] | mortality at 200 ppm [10]

CC(c1ncnn1-c1ncccn1)N(C)C(=O)c1cc(C(F)(F)F)cc(C(F)(F)C2CC2)c1 (stereo not shown) [P58, 3-[cyclopropyl(difluoro)methyl]-N-methyl-N-[1-(2-pyrimidin-2-yl-1,2,4-triazol-3-yl)ethyl]-5-(trifluoromethyl)benzamide]
≥ 80%: percent effect (mortality or growth inhibition) at 200 ppm [1] | mortality at 50 ppm [2] | percent effect (mortality, anti-feeding or growth inhibition) at 12.5 ppm [3] | mortality at 12 ppm [4] | percent effect (mortality or growth inhibition) at 200 ppm [5] | percent control (mortality, anti-feedant effect or growth inhibition) at 200 ppm [6] | mortality at 500 ppm [7] | percent effect (mortality or growth inhibition) at 200 ppm [8] | percent control (mortality, anti-feedant effect or growth inhibition) at 200 ppm [9]

CC(c1ncnn1-c1ncccn1)N(CC1CC1)C(=O)c1cc(C(F)(F)F)cc(C2(C)CC2C(F)(F)F)c1 (stereo not shown) [P43, N-(cyclopropylmethyl)-3-[1-methyl-2-(trifluoromethyl)cyclopropyl]-N-[1-(2-pyrimidin-2-yl-1,2,4-triazol-3-yl)ethyl]-5-(trifluoromethyl)benzamide]
≥ 80%: mortality at 50 ppm [2] | percent effect (mortality, anti-feeding or growth inhibition) at 12.5 ppm [3] | mortality at 12 ppm [4] | percent effect (mortality or growth inhibition) at 200 ppm [5] | percent control (mortality, anti-feedant effect or growth inhibition) at 200 ppm [6] | mortality at 500 ppm [7] | percent effect (mortality or growth inhibition) at 200 ppm [8] | percent control (mortality, anti-feedant effect or growth inhibition) at 200 ppm [9]

CC(c1ncnn1-c1ncccn1)N(CC1CC1)C(=O)c1cc(C2CC2)nc(C(F)(F)F)c1 (stereo not shown) [P55, 2-cyclopropyl-N-(cyclopropylmethyl)-N-[1-(2-pyrimidin-2-yl-1,2,4-triazol-3-yl)ethyl]-6-(trifluoromethyl)pyridine-4-carboxamide]
≥ 80%: percent effect (mortality or growth inhibition) at 200 ppm [1] | mortality at 50 ppm [2] | percent effect (mortality, anti-feeding or growth inhibition) at 12.5 ppm [3] | mortality at 12 ppm [4] | percent effect (mortality or growth inhibition) at 200 ppm [5] | mortality at 500 ppm [7] | percent effect (mortality or growth inhibition) at 200 ppm [8]

C[C@@H](c1ncnn1-c1ncccn1)N(CC1CC1)C(=O)c1cc(C2CC2)cc(C(F)(F)F)c1 [P73, 3-cyclopropyl-N-(cyclopropylmethyl)-N-[(1S)-1-(2-pyrimidin-2-yl-1,2,4-triazol-3-yl)ethyl]-5-(trifluoromethyl)benzamide]
≥ 80%: percent effect (mortality or growth inhibition) at 200 ppm [1] | mortality at 12 ppm [4] | percent effect (mortality or growth inhibition) at 200 ppm [5] | percent control (mortality, anti-feedant effect or growth inhibition) at 200 ppm [6] | percent effect (mortality or growth inhibition) at 200 ppm [8] | mortality at 200 ppm [11] | percent control (mortality, anti-feedant effect or growth inhibition) at 200 ppm [9]

CC(NC(=O)c1cc(C2CC2(F)F)cc(C(F)(F)F)c1)c1ncnn1-c1ncccn1 (stereo not shown) [P87, 3-(2,2-difluorocyclopropyl)-N-[1-(2-pyrimidin-2-yl-1,2,4-triazol-3-yl)ethyl]-5-(trifluoromethyl)benzamide]
≥ 80%: percent effect (mortality or growth inhibition) at 200 ppm [1] | mortality at 50 ppm [2] | percent effect (mortality, anti-feeding or growth inhibition) at 12.5 ppm [3] | mortality at 12 ppm [4] | percent effect (mortality or growth inhibition) at 200 ppm [5] | percent control (mortality, anti-feedant effect or growth inhibition) at 200 ppm [6] | percent effect (mortality or growth inhibition) at 200 ppm [8] | mortality at 200 ppm [11] | percent control (mortality, anti-feedant effect or growth inhibition) at 200 ppm [9]
